Measured values taken from patent publication EP0877740B1, “THIOL DERIVATIVES WITH METALLOPEPTIDASE INHIBITORY ACTIVITY” (ZAMBON GROUP S.p.A., priority 1995, dated 1997).
Like-named read-outs stand apart in the source and are kept apart here.

Biological target: T1, NEP (Rattus norvegicus, UniProt P07861)
T1 sequence (P07861 1-750): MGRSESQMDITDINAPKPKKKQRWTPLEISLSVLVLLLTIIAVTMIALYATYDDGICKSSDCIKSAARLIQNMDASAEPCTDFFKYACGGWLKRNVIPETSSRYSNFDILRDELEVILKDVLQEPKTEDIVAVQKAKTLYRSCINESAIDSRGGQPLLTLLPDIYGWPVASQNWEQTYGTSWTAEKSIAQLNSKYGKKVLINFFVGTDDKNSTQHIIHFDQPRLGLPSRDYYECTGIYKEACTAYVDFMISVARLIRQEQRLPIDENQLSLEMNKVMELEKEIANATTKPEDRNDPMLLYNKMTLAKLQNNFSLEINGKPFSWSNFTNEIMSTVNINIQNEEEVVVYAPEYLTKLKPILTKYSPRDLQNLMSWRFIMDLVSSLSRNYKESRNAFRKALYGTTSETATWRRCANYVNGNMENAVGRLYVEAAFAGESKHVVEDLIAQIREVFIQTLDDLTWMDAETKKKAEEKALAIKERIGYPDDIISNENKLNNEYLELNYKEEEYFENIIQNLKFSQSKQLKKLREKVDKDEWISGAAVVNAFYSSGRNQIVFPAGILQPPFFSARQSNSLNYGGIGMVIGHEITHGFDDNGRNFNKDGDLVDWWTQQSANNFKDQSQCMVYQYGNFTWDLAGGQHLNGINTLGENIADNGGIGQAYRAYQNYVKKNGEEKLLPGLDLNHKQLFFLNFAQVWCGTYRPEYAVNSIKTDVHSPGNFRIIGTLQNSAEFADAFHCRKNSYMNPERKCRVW
Assay: Ex vivo NEP-inhibitory activity in kidney homogenates of treated SHR (GAAP substrate)
Design: After the removal of the kidneys from SHR, the renal tissue was homogenized; from tissue; host or cells: kidney homogenate of spontaneously hypertensive rats (SHR); species or system spontaneously hypertensive rats (SHR)
Conditions: rat, SHR kidneys; for inhibition at 30 µmol/kg: oral 30 µmoles/kg
Procedure: The ex-vivo ACE/NEP-inhibitory activity, in particular, was determined by evaluating the enzymatic activity in tissue homogenates (lung and kidney for ACE and NEP activity, respectively) from spontaneously hypertensive rats (SHR) treated with the tested compounds by intravenous or oral route.
The ex vivo NEP-inhibitory activity was evaluated according to the procedure reported in the literature by M. Orlowsky et al., in Biochemistry 1981, 20, 4942-4950.
The inhibitory activity of the compounds of formula I was evaluated in kidneys of spontaneously hypertensive rats (SHR), 5 minutes after i.v. injection (0.6 and 21 µmoles/kg) and 30 minutes, 60 minutes and 4 hours after oral administration (30 µmoles/kg) of the tested compounds.
After the removal of the kidneys from SHR, the renal tissue was homogenized and incubated for 15 minutes at 37°C in the presence of Glutaryl-Ala-Ala-Phe-2-naphthylamide (GAAP), as a substrate, and aminopeptidase M at pH 7.6.
The reaction was stopped by adding an aqueous solution at 10% of trichloroacetic acid.
The released 2-naphthylamine was determined by adding fast garnet dye (2 ml).
Enzyme reaction rates were determined by measuring the increase in the optical density at 524 nm (OD524) with respect to a standard obtained with 2-naphthylamine complexed with fast garnet.
The NEP-inhibitory activity of the tested compounds was expressed as percentage of NEP-inhibition in SHR kidneys.

- inhibition at 0.6 µmol/kg (iv, i.v. 0.6 µmoles/kg, 5 minutes after injection): 34%
- inhibition at 21 µmol/kg (iv, i.v. 21 µmoles/kg, 5 minutes after injection): 49%
- inhibition at 30 µmol/kg (30 minutes after administration, read-out: NEP-inhibition (kidneys) 30 minutes): 55%
- inhibition at 30 µmol/kg (60 minutes after administration, read-out: NEP-inhibition (kidneys) 60 minutes): 39%
- inhibition at 30 µmol/kg (4 hours after administration, read-out: NEP-inhibition (kidneys) 4 hours): 40%
Structure (SMILES): O=C(N[C@@H](Cc1ccc(-c2nccs2)cc1)C(=O)O)[C@@H](CS)Cc1ccccc1 [Compound 16, N-[(2S)-3-mercapto-2-phenylmethylpropionyl]-4-(2-thiazolyl)-L-phenylalanine]
